Consider 13 compounds from paper PMC12655633, “Simultaneous Quantification of Multiple Analytes in Rat Plasma by UHPLC–MS/MS Following Oral Administration of Gastrodiae Rhizoma Extract for Pharmacokinetic Evaluation” (Molecules, 2025).

The data set is described as follows: Pharmacokinetic study in rats after oral administration of GR extract (UHPLC-MS/MS of plasma). The format is in vivo, Sprague-Dawley rats. The note with it: for plasma concentration relative to LLOQ: rat plasma following gavage of GR extract; for AUC(0-inf) / AUC(0-t) / Cmax / Tmax / k el / half-life: male, Sprague-Dawley, po; for AUC(0-inf) / AUC(0-t) / Cmax / Tmax / k el / half-life / CL (clearance) / T1/2 / Vz (apparent volume of distribution): rat plasma, GR extract 9.6 g/kg intragastric gavage, mean ± SD, n = 6; for k el: read-out: λz (terminal elimination rate constant) (converted); for half-life: rat, plasma, 9.6 g/kg. The method, then: To each 100 μL plasma sample, 20 μL of methanol and 20 μL of IS (astragalin, 1 μg/mL) were added and vortexed for 1 min. Extraction was carried out with 800 μL of methanol, followed by vortexing for 5 min at room temperature. The sample was centrifuged at 12,000× g for 10 min. Subsequently, 750 µL of supernatant was transferred to a fresh tube and completely dried under flow nitrogen. The residue was reconstituted in 150 μL of 50% methanol (v/v), vortexed for 5 min, and centrifuged for 10 min. Finally, the resulting supernatant was injected into the UHPLC-MS/MS instrument.
In this study, six SPF-grade male Sprague-Dawley rats (six weeks old, 220 ± 10 g), supplied by Beijing HUAFUKANG Bioscience Co., Inc. (Beijing, China), were housed for seven days under controlled conditions (23 ± 2 °C, 50 ± 10% relative humidity) with ad libitum access to food and water. All rats underwent a 12 h fasting period before dosing, but maintained free access to water. This study’s animal care protocols and experimental procedures adhered to institutional policies and were formally authorized by the Animal Ethics Review Committee of Tianjin University of Traditional Chinese Medicine (Tianjin, China; Ref. TCM-LAEC2025003w1430). Each rat received a GR suspension at a dosage of 9.6 g/kg via intragastric gavage. Prior to dosing, 0.2 mL of blood was drawn from the retro-orbital plexus into a heparin-coated tube. Subsequent samples were collected at 0, 0.03, 0.08, 0.17, 0.25, 0.5, 0.75, 1, 2, 4, 6, 8, 12, 24, 36, and 48 h post-dose. Plasma was separated by centrifugation (6000× g, 10 min, 4 °C) and stored at −80 °C until further analysis.
Plasma concentrations of the fourteen target analytes were determined using the MassHunter Workstation (Agilent, USA; ver. B.09.00). Pharmacokinetic analysis was conducted with DAS software (Medical College of Wannan, Wuhu, Anhui, China; v. 3.0) using non-compartmental model to calculate pharmacokinetic parameters, including Cmax, Tmax, AUC(0–t), AUC(0–∞), clearance (CL), the apparent volume of distribution (Vz), and terminal elimination rate constant (λz) for each analyte. All parameters were summarized as mean ± standard deviation (SD) (n = 6), with the SD representing inter-individual variability in the pharmacokinetic behavior.

A word on the AUC(0-inf): it is total exposure, with the tail of the curve extrapolated. A lower AUC(0-inf) goes with less exposure. Broadly, the AUC(0-t) is exposure summed from dosing to a finite time, without extrapolation to infinity. As a reminder, the Cmax is the highest concentration seen after dosing. By Tmax is commonly meant the time at which the peak concentration occurs. Broadly, the half-life is the time in which the quantity being followed falls by half. Read a high half-life as slow loss.

`O=Cc1ccc(O)c(O)c1` [3,4-Dihydroxybenzaldehyde]: the “plasma concentration relative to LLOQ” value is reported as “below the LLOQ at the majority of time points”.

In the case of `Nc1ncnc2c1ncn2[C@@H]1O[C@H](CO)[C@@H](O)[C@H]1O` [Adenosine], the “plasma concentration relative to LLOQ” value is on record as “below the LLOQ at the majority of time points”.

Regarding `COc1cc2c(cc1OC)[C@@H](Cc1ccc(Oc3cc(C[C@@H]4c5cc(OC)c(OC)cc5CCN4C)ccc3O)cc1)N(C)CC2` [Dauricine], the “plasma concentration relative to LLOQ” value is on record as “below the LLOQ at the majority of time points”.

As to `OCc1ccc(O[C@@H]2O[C@H](CO)[C@@H](O)[C@H](O)[C@H]2O)cc1` [Gastrodin], the AUC(0-inf) is 145000 ng·h/mL, the area under the curve AUC(0-t) was determined as 143000 ng·h/mL, the peak level (Cmax) was 31500 ng/mL and the Tmax turned out to be 1.5 ± 0.55 h. Moreover, the k el was 1.67e-05 s⁻¹, the half-life was about 8 h, the “CL (clearance)” value came to 2.33 ± 0.5 mL/min/kg and the T1/2 came to 8.30 ± 1.14 h. Also, the “Vz (apparent volume of distribution)” value is on record as 4.29 ± 3.24 L/kg.

Regarding `NC(=O)c1cccnc1` [Nicotinamide], the AUC(0-inf) came out at 59 ± 18.5 ng·h/mL, the AUC(0-t) was found to be 59 ± 18.5 ng·h/mL, the concentration peaked (Cmax) at 25 ± 14.2 ng/mL and the Tmax worked out at 0.5 ± 0.02 h. Also, the k el was 6.11e-05 s⁻¹, the half-life was 2.74 ± 0.42 h, the “CL (clearance)” value stood at 6170.7 ± 2057.5 mL/min/kg and the “Vz (apparent volume of distribution)” value amounted to 1588.63 ± 636.70 L/kg.

Turning to `COc1ccc(-c2cc(=O)c3c(OC)c(OC)c(OC)c(OC)c3o2)cc1OC` [Nobiletin], the “plasma concentration relative to LLOQ” value is listed as “below the LLOQ at the majority of time points”.

`O=C(O)CC(O)(CC(=O)OCc1ccc(O[C@@H]2O[C@H](CO)[C@@H](O)[C@H](O)[C@H]2O)cc1)C(=O)OCc1ccc(O[C@@H]2O[C@H](CO)[C@@H](O)[C@H](O)[C@H]2O)cc1` (some centres unmarked) [Parishin B]: the area under the curve AUC(0-inf) was determined as 460 ± 222 ng·h/mL, the AUC(0-t) stood at 460 ± 222 ng·h/mL, the Cmax came out at 319 ± 157 ng/mL and the Tmax was found to be 0.1 ± 0.06 h. Further, the k el is 7.22e-05 s⁻¹, the half-life was 2.67 ± 0.26 h, the “CL (clearance)” value amounted to 899.2 ± 438.3 mL/min/kg and the “Vz (apparent volume of distribution)” value is reported as 215.10 ± 119.59 L/kg.

`O=C(O)CC(O)(CC(=O)OCc1ccc(O[C@@H]2O[C@H](CO)[C@@H](O)[C@H](O)[C@H]2O)cc1)C(=O)O` (some centres unmarked) [Parishin E]: the AUC(0-inf) was determined as 13100 ng·h/mL, the AUC(0-t) turned out to be 11600 ng·h/mL, the highest concentration (Cmax) was determined as 2350 ± 1100 ng/mL and the time to peak (Tmax) was 0.75 ± 0.01 h. Besides, the k el was 1.39e-05 s⁻¹, the half-life was about 8 h, the “CL (clearance)” value came to 26.3 ± 5.83 mL/min/kg and the T1/2 is given as 8.08 ± 3.33 h. In addition, the “Vz (apparent volume of distribution)” value is 41.00 ± 29.24 L/kg.

In the case of `O=C(CC(O)(CC(=O)OCc1ccc(O[C@@H]2O[C@H](CO)[C@@H](O)[C@H](O)[C@H]2O)cc1)C(=O)OCc1ccc(O[C@@H]2O[C@H](CO)[C@@H](O)[C@H](O)[C@H]2O)cc1)OCc1ccc(O[C@@H]2O[C@H](CO)[C@@H](O)[C@H](O)[C@H]2O)cc1` [ParishinA, Parishin A], the area under the curve AUC(0-inf) turned out to be 572 ± 271 ng·h/mL, the AUC(0-t) stood at 531 ± 256 ng·h/mL, the Cmax was 210 ± 92.2 ng/mL and the Tmax came to 0.22 ± 0.07 h. The k el was 1.39e-05 s⁻¹, the half-life was 3.62 ± 0.26 h, the “CL (clearance)” value was 676.3 ± 244.2 mL/min/kg and the “Vz (apparent volume of distribution)” value came to 808.82 ± 409.11 L/kg.

Take `COc1cc(C=O)cc(OC)c1O` [Syringaldehyde]: the “plasma concentration relative to LLOQ” value is “below the LLOQ at the majority of time points”.

Turning to `O=Cc1ccc(O)cc1` [p-Hydroxybenzaldehyde], the area under the curve AUC(0-inf) is 59.1 ± 21 ng·h/mL, the AUC(0-t) is 56.7 ± 23.1 ng·h/mL, the concentration peaked (Cmax) at 22.5 ± 3.04 ng/mL and the time of peak concentration (Tmax) was found to be 0.25 ± 0.01 h. Moreover, the k el is 7.78e-05 s⁻¹, the half-life was 5.86 ± 2.99 h, the “CL (clearance)” value turned out to be 6285.8 ± 2280.5 mL/min/kg and the “Vz (apparent volume of distribution)” value was 4220.87 ± 5603.54 L/kg.

For the compound `O=C(O)c1ccc(O)cc1` [p-Hydroxybenzoic acid], the AUC(0-inf) came to 1600 ± 384 ng·h/mL, the area under the curve AUC(0-t) was found to be 1580 ± 381 ng·h/mL, the highest concentration (Cmax) came out at 442 ± 147 ng/mL and the time of peak concentration (Tmax) turned out to be 0.11 ± 0.05 h. Besides, the k el is 4.44e-05 s⁻¹, the half-life is 6.21 ± 3.33 h, the “CL (clearance)” value turned out to be 218 ± 47.2 mL/min/kg and the “Vz (apparent volume of distribution)” value worked out at 116.74 ± 60.67 L/kg.

Consider `OCc1ccc(O)cc1` [p-Hydroxybenzyl alcohol], for which the AUC(0-inf) came out at 674000 ng·h/mL, the AUC(0-t) amounted to 672000 ng·h/mL, the peak level (Cmax) was 90500 ng/mL and the Tmax is 1.63 ± 0.59 h. The k el is 3.89e-05 s⁻¹, the half-life was 5.31 ± 1.55 h, the “CL (clearance)” value was found to be 0.5 ± 0.17 mL/min/kg and the “Vz (apparent volume of distribution)” value was determined as 0.24 ± 0.10 L/kg.
